Patent publication US20240216352A1 (priority 2022, published 2024)
“And” between values parts separate entries of the source, which are not always exact repeats. Equal values may be shown once.

How the values were obtained:
[1] = system: healthy Japanese participants; assay: Phase 1 Part C MAD Japanese cohorts: blood pressure; type: in vivo, human
Procedure: The study was performed in 3 parts in 112 healthy male and female participants, including 24 Japanese participants. Female participants were to be not of childbearing potential. The present study was designed to evaluate the safety and tolerability, PK, and exploratory PD of an oral suspension of Compound A. Parts A and B (Cohort B1 only) enrolled healthy participants and was conducted at a site in The Netherlands and Part B (Cohort B2 to B5) enrolled healthy non-Japanese participants and was conducted at a site in the United Kingdom (UK). Part C enrolled healthy Japanese participants and was conducted at the same site in the UK.
Part C was a MAD study in 3 sequential dose escalation cohorts (30 mg BID, 60 mg BID, and 90 mg BID) of 8 healthy Japanese participants (6 active+2 placebo) each. Eligible participants in Cohorts C1 to C3 received study drug (Compound A or placebo) administered orally for 14 days.
Physical examinations, vital sign measurements (including orthostasis testing in Cohort A6, Cohort B3 to B5, and C1 to C3 at selected time points), 12-lead electrocardiogram (ECG), and clinical laboratory evaluations were performed at selected times throughout the study. In addition, Holter monitoring was performed for the first 24 hours post dose on Day 1 in Part A (not in FE/pH cohort), and also for the first 24 hours post dose on Day 1 and Day 14 in Parts B and C. Participants were closely monitored for adverse events (AEs). Blood samples were collected for up to 14 days (follow-up visit) after (last) study drug administration for PK analysis. In addition, blood and urine were collected for exploratory biomarker assessments and for biobanking of samples for potential analyses. Urine was collected for potential PK analysis for up to 96 hours after a single dose of Compound A or placebo was administered in the SAD part, and for up to 24 hours after the first (morning) dose of study drug on Day 1 and for up to 24 hours after the last (morning) dose of study drug on Day 14 in the MAD parts.

participants with IPF = assay: Phase 2 study, IPF cohort: safety and blood pressure monitoring; type: in vivo, human; conditions: for Nadir post-dose mean reduction from baseline in sitting SBP: Day 1, 2 hours post-dose
Procedure: A total of 278 participants with IPF were randomized and 276 participants were treated as of the final analyses data cut-off (4 Aug. 2022). Male and female participants […] with IPF and percent predicted forced vital capacity (ppFVC) […] and percent predicted DLCO (ppDLCO)≥25%; diagnosed within 7 years of screening; having a centrally-read chest HRCT obtained at screening that was consistent with UIP or probable UIP, or having a lung biopsy consistent with UIP, were eligible to enter the study. The mean baseline ppFVC for all subjects was 76.5%. In the primary IPF cohort, participants were randomized (1:1:1) to receive 30 mg or 60 mg Compound A or placebo (PBO) twice daily for 26 weeks. Participants were stratified by standard of care (SoC) IPF therapy (pirfenidone versus nintedanib versus none) and region (Japan versus Rest of World) at randomization.
Patient experiences any of the following, confirmed by retest within 15 minutes: • Seated systolic blood pressure <85 mmHg • Seated diastolic blood pressure <55 mmHg • Orthostatic hypotension
Patient experiences symptoms that, in the investigator's opinion, could be associated with a reduction in blood pressure and also experiences at least one of the following, confirmed by retest within 15 minutes: • Seated systolic blood pressure <100 mmHg or seated diastolic blood pressure <60 mmHg • Decrease of seated systolic blood pressure of ≥20 mmHg from the previous visit or decrease of seated diastolic blood pressure of ≥10 mmHg from the previous visit • Orthostatic hypotension • Orthostatic tachycardia

[2] = Active Total (30 mg and 60 mg groups)

SMILES: CCCN(C)C(=O)OCc1c(-c2ccc(O[C@H]3CCC[C@H](C(=O)O)C3)c(C)n2)nnn1C [Compound A, (1S,3S)-3-((2-methyl-6-(1-methyl-5-(((methyl(propyl)carbamoyl)-oxy)methyl)-1H-1,2,3-triazol-4-yl)pyridin-3-yl)oxy)cyclohexane-1-carboxylic acid]
- Maximum of mean (±SD) reduction in DBP from baseline (column printed under the head Baseline (mmHg)) ([1]; Japanese MAD 30 BID (C1)): 8.8 ± 5.12 mmHg
- Maximum of mean (±SD) reduction in SBP from baseline ([1]; Japanese MAD 30 BID (C1)): 15.0 ± 6.84 mmHg
- Time of maximum mean SBP reduction ([1]; Japanese MAD 30 BID (C1)): 1-4 Day-h
- Maximum of mean (±SD) reduction in DBP from baseline (column printed under the head Baseline (mmHg)) ([1]; Japanese MAD 60 BID (C2)): 8.2 ± 10.40 mmHg
- Maximum of mean (±SD) reduction in SBP from baseline ([1]; Japanese MAD 60 BID (C2)): 13.0 ± 8.22 mmHg
- Time of maximum mean DBP reduction ([1]; Japanese MAD 60 BID (C2)): 4-16 Day-h
- Time of maximum mean SBP reduction ([1]; Japanese MAD 60 BID (C2)): 2-16 Day-h
- Maximum of mean (±SD) reduction in DBP from baseline (column printed under the head Baseline (mmHg)) ([1]; Japanese MAD 90 BID (C2)): 8.0 ± 8.22 mmHg
- Maximum of mean (±SD) reduction in SBP from baseline ([1]; Japanese MAD 90 BID (C2)): 11.8 ± 8.47 mmHg
- Time of maximum mean DBP reduction ([1]; Japanese MAD 90 BID (C2)): 1-6 Day-h
- Time of maximum mean SBP reduction ([1]; Japanese MAD 90 BID (C2)): 1-6 Day-h
- Dose dependence of mean BP reduction ([1]; Japanese MAD cohorts): no clear Compound A dose-dependent BP reduction trend
- Dose reductions to 10 mg BID due to protocol-defined low BP criteria (participants with IPF; 30 mg BID): 7 (7.7%) n (%) and 7 (7.7) n (%)
- Treatment discontinuations due to TEAEs (participants with IPF; 30 mg BID): 9.9%
- Asymptomatic low blood pressure (participants with IPF; 30 mg BID (N = 91)): 22 (24.2%) n (%) and 22 (24.2) n (%)
- Orthostatic hypotension observed in asymptomatic low BP (participants with IPF; 30 mg BID (N = 91)): 21 (23.1%) n (%) and 21 (23.1) n (%)
- Orthostatic hypotension observed in symptomatic low BP (participants with IPF; 30 mg BID (N = 91)): 9 (9.9%) n (%) and 9 (9.9) n (%)
- Orthostatic intolerance (participants with IPF; 30 mg BID (N = 91)): 10 (11.0%) n (%) and 10 (11.0) n (%)
- Subjects discontinuing study treatment due to a TEAE (participants with IPF; 30 mg BID (N = 91)): 9 (9.9%) n (%) and 9 (9.9) n (%)
- Subjects who died (participants with IPF; 30 mg BID (N = 91)): 4 (4.4%) n (%) and 4 (4.4) n (%)
- Subjects who died due to a TEAE (participants with IPF; 30 mg BID (N = 91)): 3 (3.3%) n (%) and 3 (3.3) n (%)
- Subjects with at least one AESI (participants with IPF; 30 mg BID (N = 91)): 18 (19.8%) n (%) and 18 (19.0) n (%)
- Subjects with at least one TEAE (participants with IPF; 30 mg BID (N = 91)): 69 (75.8%) n (%) and 69 (75.8) n (%)
- Subjects with at least one TEAE related to the study treatment (participants with IPF; 30 mg BID (N = 91)): 23 (25.3%) n (%) and 23 (25.3) n (%)
- Subjects with at least one TESAE (participants with IPF; 30 mg BID (N = 91)): 10 (11.0%) n (%) and 10 (11.0) n (%)
- Symptomatic low blood pressure (participants with IPF; 30 mg BID (N = 91)): 11 (12.1%) n (%) and 11 (12.1) n (%)
- Nadir post-dose mean reduction from baseline in sitting SBP (participants with IPF; 30 mg): −10.5 mmHg
- Dose reductions to 10 mg BID due to protocol-defined low BP criteria (participants with IPF; 60 mg BID): 6 (6.5%) n (%) and 6 (6.5) n (%)
- Treatment discontinuations due to TEAEs (participants with IPF; 60 mg BID): 6.5%
- Asymptomatic low blood pressure (participants with IPF; 60 mg BID (N = 93)): 17 (18.3%) n (%) and 17 (18.3) n (%)
- Orthostatic hypotension observed in asymptomatic low BP (participants with IPF; 60 mg BID (N = 93)): 14 (15.1%) n (%) and 14 (15.1) n (%)
- Orthostatic hypotension observed in symptomatic low BP (participants with IPF; 60 mg BID (N = 93)): 5 (5.4%) n (%) and 5 (5.4) n (%)
- Orthostatic intolerance (participants with IPF; 60 mg BID (N = 93)): 2 (2.2%) n (%) and 2 (2.2) n (%)
- Subjects discontinuing study treatment due to a TEAE (participants with IPF; 60 mg BID (N = 93)): 6 (6.5%) n (%) and 6 (6.5) n (%)
- Subjects who died (participants with IPF; 60 mg BID (N = 93)): 5 (5.4%) n (%) and 5 (5.4) n (%)
- Subjects who died due to a TEAE (participants with IPF; 60 mg BID (N = 93)): 4 (4.3%) n (%) and 4 (4.3) n (%)
- Subjects with at least one AESI (participants with IPF; 60 mg BID (N = 93)): 9 (9.7%) n (%) and 9 (9.7) n (%)
- Subjects with at least one TEAE (participants with IPF; 60 mg BID (N = 93)): 69 (74.2%) n (%) and 69 (74.2) n (%)
- Subjects with at least one TEAE related to the study treatment (participants with IPF; 60 mg BID (N = 93)): 25 (26.9%) n (%) and 25 (26.9) n (%)
- Subjects with at least one TESAE (participants with IPF; 60 mg BID (N = 93)): 10 (10.8%) n (%) and 10 (10.8) n (%)
- Symptomatic low blood pressure (participants with IPF; 60 mg BID (N = 93)): 6 (6.5%) n (%) and 6 (6.5) n (%)
- Risk of orthostatic and low BP events compared to PBO (participants with IPF; 60 mg twice daily (BID)): not associated with any increased risk of orthostatic intolerance, orthostatic hypotension, orthostatic tachycardia, or symptomatic or asymptomatic low BP
- Nadir post-dose mean reduction from baseline in sitting SBP (participants with IPF; 60 mg): −14.1 mmHg
- Subjects discontinuing study treatment due to a TEAE (participants with IPF; [2]): 15 (8.2) n (%)
- Subjects who died (participants with IPF; [2]): 9 (4.9) n (%)
- Subjects who died due to a TEAE (participants with IPF; [2]): 7 (3.8) n (%)
- Subjects with at least one AESI (participants with IPF; [2]): 27 (14.7) n (%)
- Subjects with at least one TEAE (participants with IPF; [2]): 138 (75.0) n (%)
- Subjects with at least one TEAE related to the study treatment (participants with IPF; [2]): 48 (26.1) n (%)
- Subjects with at least one TESAE (participants with IPF; [2]): 20 (10.9) n (%)
